{"source": "ChEMBL document CHEMBL4431301", "about": "“The Medicinal Chemistry of Dengue Virus” (J Med Chem, 2016)", "key": {"dengue virus type 2 [1]": {"tested_on": "dengue virus type 2", "assay": "Antiviral activity against Dengue virus 2 NGC infected in monkey LLC-MK2 cells preincubated with virus for 1 hr followed by cell infection for 1 hr by focus forming unit assay", "type": "functional, organism-based"}, "Genome polyprotein [2]": {"target": "T1, Genome polyprotein (dengue virus type 2, UniProt P29990)", "T1 sequence (P29990 1346-1475 limits assumed)": "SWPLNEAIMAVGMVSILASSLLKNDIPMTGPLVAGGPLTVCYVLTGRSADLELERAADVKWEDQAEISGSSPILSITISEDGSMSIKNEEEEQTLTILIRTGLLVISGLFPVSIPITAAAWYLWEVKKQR", "T1 sequence (P29990 1476-2093 limits assumed)": "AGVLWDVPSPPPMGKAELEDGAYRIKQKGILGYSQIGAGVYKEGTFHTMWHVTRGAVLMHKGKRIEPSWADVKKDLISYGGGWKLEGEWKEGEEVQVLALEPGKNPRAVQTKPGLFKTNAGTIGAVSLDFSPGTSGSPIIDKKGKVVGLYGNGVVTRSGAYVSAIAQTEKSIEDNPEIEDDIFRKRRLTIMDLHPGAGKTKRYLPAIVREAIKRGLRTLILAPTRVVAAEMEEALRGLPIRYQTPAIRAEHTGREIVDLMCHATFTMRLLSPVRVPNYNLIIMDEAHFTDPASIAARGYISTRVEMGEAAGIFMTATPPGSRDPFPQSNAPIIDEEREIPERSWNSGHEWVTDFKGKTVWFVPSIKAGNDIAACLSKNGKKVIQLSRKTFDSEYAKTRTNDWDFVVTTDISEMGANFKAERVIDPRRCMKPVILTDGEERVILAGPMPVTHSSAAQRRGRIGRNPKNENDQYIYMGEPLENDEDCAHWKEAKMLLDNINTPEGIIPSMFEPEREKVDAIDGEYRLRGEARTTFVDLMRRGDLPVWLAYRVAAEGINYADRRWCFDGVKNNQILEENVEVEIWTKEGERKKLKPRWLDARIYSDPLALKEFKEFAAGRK", "assay": "Inhibition of Dengue virus 2 Taiwanese PL046 NS2B-NS3 protease using Ac-TTSTRR-pNA as substrate preincubated for 10 mins followed by addition of substrate measured after 2 hrs"}, "Genome polyprotein [3]": {"target": "T1, Genome polyprotein", "assay": "Inhibition of Dengue virus 1 NS2B-NS3 protease expressed in Escherichia coli using Abz-RRRRSAG-nY-NH2 as substrate preincubated for 20 mins followed by addition of substrate measured after 60 mins by fluorescence assay", "set-up": "species or system dengue virus type 1"}, "Genome polyprotein [4]": {"target": "T1, Genome polyprotein", "assay": "Inhibition of Dengue virus 3 NS2B-NS3 protease expressed in Escherichia coli using Abz-RRRRSAG-nY-NH2 as substrate preincubated for 20 mins followed by addition of substrate measured after 60 mins by fluorescence assay", "set-up": "species or system dengue virus type 3"}, "[5]": {"target": "T2, DEN4V NS2B-G4SG4NS3 serine protease (Dengue virus type 4, UniProt P09866)", "assay": "Inhibition of Dengue virus 4 NS2B-NS3 protease expressed in Escherichia coli using Abz-RRRRSAG-nY-NH2 as substrate preincubated for 20 mins followed by addition of substrate measured after 60 mins by fluorescence assay"}, "Genome polyprotein [6]": {"target": "T1, Genome polyprotein", "assay": "Inhibition of Dengue virus 2 NS2B-NS3 protease expressed in Escherichia coli using Abz-RRRRSAG-nY-NH2 as substrate preincubated for 20 mins followed by addition of substrate measured after 60 mins by fluorescence assay"}, "Genome polyprotein [7]": {"target": "T1, Genome polyprotein", "assay": "Inhibition of recombinant Dengue virus 2 S-16803 NS2B-NS3 protease using Bz-nKRRAMC as substrate preincubated with enzyme followed by substrate addition measured after 20 mins by fluorescence assay"}, "Genome polyprotein [8]": {"target": "T1, Genome polyprotein", "assay": "Inhibition of the Dengue virus 2 NS2B-NS3 protease expressed in Escherichia coli BL21(DE3)-RIPL cells using Pyr-RTKR-AMC as substrate preincubated for 30 mins followed by addition of substrate"}, "dengue virus type 2 [9]": {"tested_on": "dengue virus type 2", "assay": "Antiviral activity against Dengue virus 2 NGC infected in BHK21 cells assessed as reduction in virus replication after 24 hrs by renilla luciferase reporter gene assay", "type": "functional, organism-based", "details": "BHK-21, 24 h"}, "[10]": {"assay": "Cytotoxicity against BHK21 cells assessed as cell viability after 24 hrs by ATP-Lite assay", "type": "cell-based, Mesocricetus auratus, BHK-21", "details": "hamster"}, "dengue virus type 1": {"tested_on": "dengue virus type 1", "assay": "Antiviral activity against Dengue virus 1 Hawaii infected in african green monkey Vero cells assessed as blockage of viral entry after 72 hrs by foci-forming assay", "type": "functional, organism-based"}, "dengue virus type 3": {"tested_on": "dengue virus type 3", "assay": "Antiviral activity against Dengue virus 3 H87 infected in african green monkey Vero cells assessed as blockage of viral entry after 72 hrs by foci-forming assay", "type": "functional, organism-based"}, "dengue virus type 4": {"tested_on": "dengue virus type 4", "assay": "Antiviral activity against Dengue virus 4 H241 infected in african green monkey Vero cells assessed as blockage of viral entry after 72 hrs by foci-forming assay", "type": "functional, organism-based"}, "dengue virus type 2 [11]": {"tested_on": "dengue virus type 2", "assay": "Antiviral activity against Dengue virus 2 16681 infected in african green monkey Vero cells assessed as blockage of viral entry after 72 hrs by foci-forming assay", "type": "functional, organism-based", "details": "Dengue virus, 16681, Vero"}, "dengue virus type 2 [12]": {"tested_on": "dengue virus type 2", "assay": "Antiviral activity against Dengue virus 2 NGC infected in african green monkey Vero cells preincubated with virus for 5 mins followed by cell infection for 5 mins by immunofluorescence analysis", "type": "functional, organism-based"}, "[13]": {"target": "T2, DEN4V NS2B-G4SG4NS3 serine protease", "assay": "Non-competitive inhibition of Dengue virus 4 NS3 helicase"}}, "note": "Where a SMILES comes first, the peptide text is derived from it."}
{"smiles": "CC[C@H](C)[C@H](NC(=O)[C@H](CC(C)C)NC(=O)[C@@H](NC(=O)[C@H](Cc1ccccc1)NC(=O)[C@H](Cc1c[nH]c2ccccc12)NC(=O)[C@@H](N)Cc1ccccc1)[C@@H](C)O)C(=O)N[C@@H](CCCCN)C(=O)N[C@H](C(=O)N[C@@H](CCC(N)=O)C(=O)N[C@@H](C)C(=O)N[C@@H](CCCCN)C(=O)N[C@@H](CCC(N)=O)C(=O)N1CCC[C@H]1C(=O)N[C@@H](C)C(=O)N[C@@H](CCCNC(=N)N)C(=O)N[C@@H](Cc1ccc(O)cc1)C(=O)N[C@@H](CCCNC(=N)N)C(=O)N[C@@H](CCCNC(=N)N)C(=O)N[C@@H](Cc1ccccc1)C(=O)N[C@@H](CS)C(=O)O)[C@@H](C)O", "note": "(H-FWFTLIKTQAKQPARYRRFC-OH)", "values": [{"measurement": "IC50", "setting": "dengue virus type 2 [1]", "value": 7, "unit": "µM"}]}
{"smiles": "CCCCCCCCCCCCCCCC[N+](CC)(CO)CO", "values": [{"measurement": "IC50", "setting": "Genome polyprotein [2]", "value": 22.6, "unit": "µM"}]}
{"smiles": "NC(=O)[C@H](Cc1c[nH]c2ccccc12)NC(=O)[C@H](CS)NC(=O)[C@H](Cc1ccc(O)cc1)NC(=O)[C@@H](N)Cc1c[nH]c2ccccc12", "note": "(H-WYCW-NH2)", "values": [{"measurement": "Ki", "setting": "Genome polyprotein [3]", "value": 4.2, "unit": "µM"}, {"measurement": "Ki", "setting": "Genome polyprotein [4]", "value": 24.4, "unit": "µM"}, {"measurement": "Ki", "setting": "[5]", "value": 11.2, "unit": "µM"}, {"measurement": "Ki", "setting": "Genome polyprotein [6]", "value": 4.8, "unit": "µM"}]}
{"smiles": "N#C/C(=C\\c1ccc(-c2ccc(C(=O)O)cc2)s1)c1nc2cc(Cl)ccc2[nH]1", "values": [{"measurement": "IC50", "setting": "Genome polyprotein [7]", "value": 5.95, "unit": "µM"}]}
{"smiles": "Nc1cc(N)c(/N=N/c2ccc(S(=O)(=O)Nc3nccs3)cc2)cc1/N=N/c1ccc(S(=O)(=O)Nc2nccs2)cc1", "values": [{"measurement": "IC50", "setting": "Genome polyprotein [8]", "value": 2.75, "unit": "µM"}, {"measurement": "EC50", "setting": "dengue virus type 2 [9]", "value": 39.9, "unit": "µM"}, {"measurement": "CC50 at 24 h", "setting": "[10]", "value": 213, "unit": "µM"}]}
{"smiles": "CC[C@H](C)[C@H](NC(=O)[C@H](Cc1c[nH]c2ccccc12)NC(=O)[C@@H](NC(=O)[C@H](CCC(=O)O)NC(=O)[C@@H](NC(=O)[C@H](CCCNC(=N)N)NC(=O)[C@H](CCC(N)=O)NC(=O)[C@@H](NC(=O)[C@H](Cc1cnc[nH]1)NC(=O)[C@H](CCCCN)NC(=O)[C@H](Cc1c[nH]c2ccccc12)NC(=O)[C@H](C)NC(=O)CNC(=O)[C@H](CCC(=O)O)NC(=O)[C@H](CO)NC(=O)[C@H](CO)NC(=O)[C@H](CCSC)NC(=O)[C@H](Cc1c[nH]c2ccccc12)NC(=O)[C@@H](NC(=O)[C@H](CCC(=O)O)NC(=O)[C@@H](NC(=O)[C@H](CCCNC(=N)N)NC(=O)[C@@H](NC(=O)[C@H](CCC(=O)O)NC(=O)[C@H](CC(C)C)NC(=O)CNC(=O)[C@H](CCSC)NC(=O)CNC(=O)[C@@H](NC(=O)[C@H](Cc1cnc[nH]1)NC(=O)[C@@H]1CCCN1C(=O)[C@@H](NC(=O)[C@H](CC(C)C)NC(=O)[C@H](C)NC(=O)[C@@H](NC(=O)[C@@H](N)CO)C(C)C)C(C)C)C(C)C)[C@@H](C)O)[C@@H](C)O)[C@@H](C)O)C(C)C)[C@@H](C)CC)[C@H](C)O)C(=O)N[C@@H](CC(C)C)C(=O)N[C@@H](CCCNC(=N)N)C(=O)N[C@@H](Cc1cnc[nH]1)C(=O)N1CCC[C@H]1C(=O)NCC(=O)O", "values": [{"measurement": "EC50", "setting": "dengue virus type 1", "value": "24 to 31", "unit": "µM"}, {"measurement": "EC50", "setting": "dengue virus type 3", "value": "24 to 31", "unit": "µM"}, {"measurement": "EC50", "setting": "dengue virus type 4", "value": "24 to 31", "unit": "µM"}, {"measurement": "EC50", "setting": "dengue virus type 2 [11]", "value": "24 to 31", "unit": "µM"}]}
{"smiles": "Cc1ccc(C(=O)Nc2ccc(S(=O)(=O)O)c3cc(S(=O)(=O)O)cc(S(=O)(=O)O)c23)cc1NC(=O)c1cccc(NC(=O)Nc2cccc(C(=O)Nc3cc(C(=O)Nc4ccc(S(=O)(=O)O)c5cc(S(=O)(=O)O)cc(S(=O)(=O)O)c45)ccc3C)c2)c1", "note": "[SURAMIN]", "values": [{"measurement": "EC50", "setting": "dengue virus type 2 [12]", "value": 40, "unit": "µM"}, {"measurement": "Ki", "setting": "[13]", "value": 0.75, "unit": "µM"}]}
